Measured values reported in ChEMBL document CHEMBL2203035, “Synthesis and docking studies of novel antitumor benzimidazoles” (Bioorg Med Chem, 2012).

Tests used:
[1] = molecular target: Urokinase plasminogen activator surface receptor (Homo sapiens, UniProt Q03405); experiment: Binding affinity to uPAR
[2] = system: A549; experiment: Cytotoxicity against human A549 cells after 72 hrs by alamar blue assay; type: functional, cell-based; details: A549, 72 h
[3] = system: Raji; experiment: Inhibition of tumor promotion in human Raji cells assessed as TPA-induced Epstein-Barr virus early antigen activation at 100 mol ratio/TPA after 48 hrs by indirect immunofluorescence analysis relative to TPA alone; type: functional; design: scale not given: the % may be the effect or the level left
[4] = system: Raji; experiment: Inhibition of tumor promotion in human Raji cells assessed as TPA-induced Epstein-Barr virus early antigen activation at 10 mol ratio/TPA after 48 hrs by indirect immunofluorescence analysis relative to TPA alone; type: functional; design: scale not given: the % may be the effect or the level left
[5] = system: Raji; experiment: Inhibition of tumor promotion in human Raji cells assessed as TPA-induced Epstein-Barr virus early antigen activation at 500 mol ratio/TPA after 48 hrs by indirect immunofluorescence analysis relative to TPA alone; type: functional; design: scale not given: the % may be the effect or the level left
[6] = system: Raji; experiment: Inhibition of tumor promotion in human Raji cells assessed as TPA-induced Epstein-Barr virus early antigen activation at 1000 mol ratio/TPA after 48 hrs by indirect immunofluorescence analysis relative to TPA alone; type: functional; design: scale not given: the % may be the effect or the level left
[7] = system: MCF7; experiment: cells; details: Homo sapiens, MCF7, 48 h
Description: Cytotoxicity against human MCF7 cells after 48 hrs by sulforhodamine B assay

[8] = system: A549; experiment: Downregulation of uPA protein expression in human A549 cell extract at 1.10 uM after 48 hrs by ELISA (reference value: 11.0000 +/-1.60 ng/ml); type: functional
[9] = system: A549; experiment: Downregulation of uPA protein expression in human A549 cell extract at 1.10 uM after 48 hrs by ELISA; type: functional
[10] = system: A549; experiment: Downregulation of uPA protein expression in human A549 cell extract at 0.55 uM after 48 hrs by ELISA; type: functional
[11] = system: MCF7; experiment: Downregulation of uPA protein expression in human MCF7 cell extract at 0.35 uM after 48 hrs by ELISA (reference value: 1 1.4000 +/- 1.40 ng/ml); type: functional
[12] = system: A549; experiment: Downregulation of uPA protein expression in human A549 cell extract at 0.55 uM after 48 hrs by ELISA (reference value: 11.0000 +/-1.60 ng/ml); type: functional
[13] = system: A549; experiment: Downregulation of uPA protein expression in human A549 cell extract at 0.275 uM after 48 hrs by ELISA; type: functional
[14] = system: A549; experiment: Downregulation of uPA protein expression in human A549 cell extract at 0.137 uM after 48 hrs by ELISA (reference value: 11.0000 +/-1.60 ng/ml); type: functional
[15] = system: A549; experiment: Downregulation of uPA protein expression in human A549 cell extract at 0.137 uM after 48 hrs by ELISA; type: functional
[16] = system: MCF7; experiment: Downregulation of uPA protein expression in human MCF7 cell extract at 0.175 uM after 48 hrs by ELISA (reference value: 1 1.4000 +/- 1.40 ng/ml); type: functional
[17] = system: MCF7; experiment: Downregulation of uPA protein expression in human MCF7 cell extract at 0.70 ug/well after 48 hrs by ELISA (reference value: 1 1.4000 +/- 1.40 ng/ml)
[18] = system: A549; experiment: Downregulation of uPA protein expression in human A549 cell extract at 0.275 uM after 48 hrs by ELISA (reference value: 11.0000 +/-1.60 ng/ml); type: functional
[19] = system: MCF7; experiment: Downregulation of uPA protein expression in human MCF7 cell extract at 0.087 uM after 48 hrs by ELISA (reference value: 1 1.4000 +/- 1.40 ng/ml); type: functional
[20] = system: MCF7; experiment: Downregulation of uPA protein expression in human MCF7 cell extract at 0.30 uM after 48 hrs by ELISA (reference value: 1 1.4000 +/- 1.40 ng/ml); type: functional
[21] = system: MCF7; experiment: Downregulation of uPA protein expression in human MCF7 cell extract at 0.60 uM after 48 hrs by ELISA (reference value: 1 1.4000 +/- 1.40 ng/ml); type: functional
[22] = system: MCF7; experiment: Downregulation of uPA protein expression in human MCF7 cell extract at 0.075 uM after 48 hrs by ELISA (reference value: 1 1.4000 +/- 1.40 ng/ml); type: functional
[23] = system: MCF7; experiment: Downregulation of uPA protein expression in human MCF7 cell extract at 0.15 uM after 48 hrs by ELISA (reference value: 1 1.4000 +/- 1.40 ng/ml); type: functional
[24] = system: A549; experiment: Downregulation of uPA protein expression in human A549 cell extract at 0.40 uM after 48 hrs by ELISA (reference value: 11.0000 +/-1.60 ng/ml); type: functional
[25] = system: A549; experiment: Downregulation of uPA protein expression in human A549 cell extract at 0.05 uM after 48 hrs by ELISA (reference value: 11.0000 +/-1.60 ng/ml); type: functional
[26] = system: A549; experiment: Downregulation of uPA protein expression in human A549 cell extract at 0.20 uM after 48 hrs by ELISA (reference value: 11.0000 +/-1.60 ng/ml); type: functional
[27] = system: A549; experiment: Downregulation of uPA protein expression in human A549 cell extract at 0.10 uM after 48 hrs by ELISA (reference value: 11.0000 +/-1.60 ng/ml); type: functional

Chain of Urokinase plasminogen activator surface receptor (Q03405 whole entry): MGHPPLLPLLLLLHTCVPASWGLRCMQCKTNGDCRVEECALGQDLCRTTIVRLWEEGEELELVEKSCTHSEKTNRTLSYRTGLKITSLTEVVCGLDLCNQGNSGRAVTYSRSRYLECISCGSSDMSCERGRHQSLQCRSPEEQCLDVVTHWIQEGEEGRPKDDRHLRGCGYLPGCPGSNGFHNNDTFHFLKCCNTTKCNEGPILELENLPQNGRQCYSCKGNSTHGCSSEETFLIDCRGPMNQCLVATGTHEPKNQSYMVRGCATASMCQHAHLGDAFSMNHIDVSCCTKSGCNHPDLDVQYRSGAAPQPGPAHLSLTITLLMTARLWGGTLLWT

Row | Compound | Ki [1] [nM] | IC50 [2] [nM] | Activity [3] [%] | Activity [4] [%] | Activity [5] [%] | Activity [6] [%] | IC50 [7] [µg/well] | also measured
1 | Nc1nc2ccccc2[nH]c1=O | 20.8 | 9100 | 78.1 | 100 | 46.3 | 12.6 | – | –
2 | Nc1c(-c2nc3ccccc3[nH]2)cc(-c2ccccc2)n1-c1nc2ccccc2[nH]1 | 0.00153 | 7700 | 80 | 100 | 48.2 | 16.3 | 1.62 | –
3 | Nc1c(-c2nc3ccccc3[nH]2)cc(-c2ccccc2)n1Cc1nc2ccccc2[nH]1 | 0.00217 | 5100 | 82.6 | 100 | 48.3 | 18.7 | 0.972 | –
4 | O=C1NC2=Nc3ccccc3NC2=Nc2ccccc21 | 1.33 | 13200 | 86.3 | 100 | 54.6 | 22.6 | 1.39 | –
5 | O=C1NC2=Nc3ccccc3N(Cc3nc4ccccc4[nH]3)C2=Nc2ccccc21 | 0.00636 | 8500 | 85.6 | 100 | 53.1 | 20.5 | 1.66 | –
6 | CCOC(=O)Cn1c(CN2C3=Nc4ccccc4C(=O)NC3=Nc3ccccc32)nc2ccccc21 | 0.0017 | 8400 | 74.4 | 100 | 43.7 | 10.3 | 0.934 | –
7 | N#CC(C#N)CC(=O)c1ccccc1 | 0.296 | 9700 | – | – | – | – | – | –
8 | N#Cc1cc(-c2ccccc2)n(-c2ccccn2)c1N | 0.0333 | 32000 | – | – | – | – | – | –
9 | N#Cc1cc(-c2ccccc2)n(-c2ccncc2)c1N | 0.00759 | 10700 | – | – | – | – | – | –
10 | N#Cc1cc(-c2ccccc2)n(-c2cccc(Br)c2)c1N | 0.00411 | 13000 | – | – | – | – | – | –
11 | N#Cc1cc(-c2ccccc2)n(-c2ccc(Br)cc2)c1N | 0.00327 | 4600 | – | – | – | – | – | –
12 | N#Cc1cc(-c2ccccc2)n(-c2cccc(Cl)c2)c1N | 0.00227 | 8000 | – | – | – | – | – | –
13 | N#Cc1cc(-c2ccccc2)n(-c2ccc(Cl)cc2)c1N | 0.00329 | 7700 | – | – | – | – | – | –
14 | N#Cc1cc(-c2ccccc2)n(-c2nc3ccccc3[nH]2)c1N | 0.00302 | 12100 | 83.5 | 100 | 49.6 | 19.7 | 1.28 | –
15 | Nc1c(-c2nc3ccccc3[nH]2)cc(-c2ccccc2)n1-c1ccccn1 | 0.00653 | 8000 | 79.1 | 100 | 47.3 | 15.9 | 0.934 | –
16 | Nc1c(-c2nc3ccccc3[nH]2)cc(-c2ccccc2)n1-c1ccncc1 | 0.001 | 1100 | 78.6 | 100 | 46.9 | 15.3 | 0.705 | Activity [8]: 2.7 ng/mL; Activity [9]: 75%; Activity [10]: 56%; Activity [11]: 9 ng/mL; Activity [12]: 4.8 ng/mL; Activity [13]: 53%; Activity [14]: 6.2 ng/mL; Activity [15]: 44%; Activity [16]: 8.7 ng/mL; Activity [17]: 9.4 ng/mL; Activity [18]: 5.2 ng/mL; Activity [19]: 9.8 ng/mL
17 | Nc1c(-c2nc3ccccc3[nH]2)cc(-c2ccccc2)n1-c1cccc(Br)c1 | 0.012 | 13500 | 84 | 100 | 49.9 | 19.2 | 2.12 | –
18 | Nc1c(-c2nc3ccccc3[nH]2)cc(-c2ccccc2)n1-c1ccc(Br)cc1 | 0.011 | 12000 | 83.2 | 100 | 48 | 18.9 | 0.82 | –
19 | Nc1c(-c2nc3ccccc3[nH]2)cc(-c2ccccc2)n1-c1cccc(Cl)c1 | 0.0044 | 7000 | 80.1 | 100 | 48.3 | 17.8 | 1.7 | –
20 | Nc1c(-c2nc3ccccc3[nH]2)cc(-c2ccccc2)n1-c1ccc(Cl)cc1 | 0.00445 | 9900 | 85.6 | 100 | 50.3 | 20.1 | 0.934 | –
21 | COc1cccc2c1C(=O)c1c(O)c3c(c(O)c1C2=O)C[C@@](O)(C(=O)CO)C[C@@H]3O[C@H]1C[C@H](N)[C@H](O)[C@H](C)O1 [DOXORUBICIN] | – | – | – | – | – | – | – | Activity [20]: 3 ng/mL; Activity [21]: 2.75 ng/mL; Activity [22]: 3.4 ng/mL; Activity [23]: 3.2 ng/mL
22 | CO[C@@]12[C@H](COC(N)=O)C3=C(C(=O)C(C)=C(N)C3=O)N1C[C@@H]1N[C@@H]12 [MITOMYCIN] | – | – | – | – | – | – | – | Activity [24]: 2.4 ng/mL; Activity [25]: 4.3 ng/mL; Activity [26]: 2.6 ng/mL; Activity [27]: 3.3 ng/mL
23 | CC1(C)CC[C@]2(C(=O)O)CC[C@]3(C)C(=CC[C@@H]4[C@@]5(C)CC[C@H](O)C(C)(C)[C@@H]5CC[C@]43C)[C@@H]2C1 [OLEANOLIC_ACID] | – | – | 80 | 100 | 30 | 12.7 | – | –
24 | CC/C(=C(\c1ccccc1)c1ccc(OCCN(C)C)cc1)c1ccccc1 [TAMOXIFEN] | – | – | – | – | – | – | 1.82 | –
